Structures can show the parent of a compound that is named as a salt.

Data set [1] is described as follows: Cytotoxicity assay, MRC-5SV2 cells, resazurin, 3 days. The settings on record: human, MRC-5 cells, highest concentration 64 µM. Type of data set: cell-based. The method, then: The series of final products (13–69) was investigated in vitro on the human fetal lung fibroblast cell line MRC-5 (Table 1) to assess cytotoxicity toward normal (i.e., non-malignant) human cells. […] As explained earlier, these are important pathogens for humans or cattle (T. b. brucei) and a persistent need for new therapeutics exists for these parasites. As a part of the antiparasitic tests, cytotoxicity against primary mouse macrophages (PMMs) was also evaluated. These murine cells serve as host cells for parasites in the L. infantum assay. Therefore, the murine macrophage assay not only offers additional cytotoxicological insight but is also essential to interpreting the readout of the L. infantum assay.
(§1) The MRC-5SV2 human lung fibroblast cell line was cultured in MEM + Earle’s salts-medium, supplemented with 2 mM L-glutamine, 16.5 mM NaHCO3, and 5% inactivated fetal calf serum. For evaluating the antileishmanial activity, the L. infantum MHOM/MA(BE)/67 strain was used. This strain was maintained in a Golden hamster (Mesocricetus auratus). Amastigotes were collected from the spleen of an infected donor hamster using differential centrifugation. Primary peritoneal mouse macrophages were used as host cells and were collected 2 days after peritoneal stimulation with a 2% potato starch suspension. For the intracellular T. cruzi assays, the Tulahuen CL2 strain was used that expresses β-galactosidase. The strain was maintained in MRC-5SV2 cells in MEM medium. The T. b. brucei Squib 427 strain or T. b. rhodesiense STIB-900 strain was used for screening against the extracellular African trypanosomes. The strains were maintained in Hirumi’s Modified Iscove’s medium-9 (HMI-9), supplemented with 10% inactivated fetal calf serum. All cultures and assays were performed at 37 °C with 5% CO2.
(§2) Compound stock solutions were prepared in 100% DMSO at 20 mM. The compounds were serially pre-diluted by robotic plate production (4-fold) in DMSO followed by a further (intermediate) dilution in demineralized water to assure a final in-test DMSO concentration of <1%. Identical test plates containing 10 µL of the different concentrations of each compound were produced for the different assays. For the cytotoxicity assays, 5 concentrations per compound were tested (64–16–4–1–0.25 µM). For the parasitic assays, 10 concentrations per compound were tested, ranging from 64 µM to 0.2 nM.
Assays were performed in sterile 96-well microtiter plates, each well containing 10 µL of the watery compound dilutions together with 190 µL of MRC-5SV2 inoculum (1.5 × 10^5 cells/mL). Cell growth was compared to untreated control wells (100% cell growth) and medium-control wells (0% cell growth). After 3 days incubation, MRC-5 viability was assessed fluorimetrically after addition of 50 μL resazurin per well (final concentration of 10 µg mL^−1). After 4 h at 37 °C, fluorescence was measured (λex 550 nm, λem 590 nm). The results were expressed as % reduction in cell growth/viability compared to positive (100% growth–0% inhibition) and negative (0% growth–100% inhibition) control wells from which EC50 values (50% effective concentrations) were derived using an excel macro that calculates the interpolation of the concentrations corresponding to the flanking points, just above and just below 50% inhibition.
For orientation: The colour change of resazurin is a common sign of viable cells or microbes.

The subject of data set [2] is L. infantum MHOM/MA(BE)/67 strain. Description: L. infantum intracellular amastigote assay in PMM (Giemsa, 5 days). The note with it: Leishmania infantum, 120 h, amastigotes in PMM, 5 days; read-out: L. inf. (EC50). The format is cell-based, Leishmania infantum. The method, then:
as §1, §2
Primary peritoneal mouse macrophages (PMMs) were prepared in RPMI-1640 medium, supplemented with 2 mM L-glutamine, 16.5 mM NaHCO3, and 5% inactivated fetal calf serum. The macrophages are infected after 48 h with spleen-derived L. infantum amastigotes (3 × 10^4 PMM + 4.5 × 10^5 parasites/well). The compounds were added after 2 h of infection. After 5 days incubation, parasite burdens (mean number of amastigotes/macrophage) were assessed microscopically after staining with a 10% Giemsa solution and EC50 values were calculated.

In data set [3] the test system is T. b. rhodesiense STIB-900 strain. The data set is described as follows: T. b. rhodesiense growth assay (resazurin, 3 days). The format is cell-based, Trypanosoma brucei rhodesiense. The note with it: Trypanosoma brucei, RHODESIENSE, 72 h, 3 days; read-out: T. b. rhod. (EC50). As for the experimental part: as §1, §2
(§3) Parasite suspensions (1.5 × 10^4 T. b. brucei/well or 4 × 10^3 T. b. rhodesiense/well) in HMI-9 medium were exposed in a total volume of 200 µL to 10 µL of the compound dilutions Parasite growth was assessed fluorimetrically after 3 days of incubation by the addition of 50 µL resazurin per well. After 6 h (T. b. rhodesiense) or 24 h (T. b. brucei) at 37 °C, fluorescence was measured (λex 550 nm, λem 590 nm), from which viability and EC50 values could be determined.

The subject of data set [4] is Trypanosoma cruzi Tulahuen CL2 strain. The data set is described as follows: Intracellular T. cruzi assay in MRC-5 cells (β-galactosidase/CPRG, 7 days). The format is cell-based. The note with it: Trypanosoma cruzi, TULAHUEN, MRC5, 168 h, intracellular in MRC-5 cells. As for the experimental part: as §1, §2
MRC-5 cells were infected in 96-well plates using a harvested T. cruzi inoculum (4 × 10^3 MRC-5 cells/well + 4 × 10^4 parasites/well) and exposed to 10 µL of the compound dilutions (200 µL/well total volume). Parasite growth determined after 7 days of incubation and compared to untreated infected controls following the addition of the substrate CPRG (chlorophenolred ß-D-galactopyranoside): 50 µL/well of a stock solution containing 15.2 mg CPRG + 250 µL Nonidet in 100 mL PBS. The absorbance was measured spectrophotometrically at 540 nm after 4 h incubation at 37 °C and EC50 values were calculated.

In data set [5] the test system is T. b. brucei Squib 427 strain. The data set is described as follows: T. b. brucei growth assay (resazurin, 3 days). The format is cell-based, Trypanosoma brucei brucei. The settings on record: Trypanosoma brucei, 72 h, 3 days; read-out: T. b. bruc. (EC50). The method, then:
as §1, §2, §3

Where [6] appears, read: MRC-5SV2 human lung fibroblast cells.

For orientation: EC50 means the concentration at which the effect is half-maximal. Turning to `c1ccc(CNCc2cn(-c3ccccc3)nc2-c2ccc3c(c2)OCCO3)cc1` [Compound 15, N-benzyl-1-(3-(2,3-dihydrobenzo[b][1,4]dioxin-6-yl)-1-phenyl-1H-pyrazol-4-yl)methanamine hydrochloride], a half-maximal effect in data set [1] (setting [6]) (EC50 at 3 days) was put at 5.42 µM.

On to `Fc1ccc(CNCc2cn(-c3ccccc3)nc2-c2ccc3c(c2)OCCO3)cc1` [Compound 16, 1-(3-(2,3-dihydrobenzo[b][1,4]dioxin-6-yl)-1-phenyl-1H-pyrazol-4-yl)-N-(4-fluorobenzyl)methanamine hydrochloride], for which, in data set [1] (setting [6]), the EC50 at 3 days was determined as 6.65 µM. The same measure, in the same setting: the value for `c1ccc(CCNCc2cn(-c3ccccc3)nc2-c2ccc3c(c2)OCCO3)cc1` [Compound 17, N-((3-(2,3-dihydrobenzo[b][1,4]dioxin-6-yl)-1-phenyl-1H-pyrazol-4-yl)methyl)-2-phenylethan-1-amine hydrochloride] was 0.56 µM; that for `c1ccc(-n2cc(CNCCc3cccnc3)c(-c3ccc4c(c3)OCCO4)n2)cc1` [Compound 20, N-((3-(2,3-dihydrobenzo[b][1,4]dioxin-6-yl)-1-phenyl-1H-pyrazol-4-yl)methyl)-2-(pyridin-3-yl)ethan-1-amine hydrochloride] was 8.95 µM. In data set [1] (setting [6]), `c1ccc(-n2cc(CN3CCCC3)c(-c3ccc4c(c3)OCCO4)n2)cc1` [Compound 23, 3-(2,3-dihydrobenzo[b][1,4]dioxin-6-yl)-1-phenyl-4-(pyrrolidin-1-ylmethyl)-1H-pyrazole oxalate] yielded an EC50 at 3 days of 18.2 µM.

The compound `CN1CCN(Cc2cn(-c3ccccc3)nc2-c2ccc3c(c2)OCCO3)CC1` [Compound 24, 1-((3-(2,3-dihydrobenzo[b][1,4]dioxin-6-yl)-1-phenyl-1H-pyrazol-4-yl)methyl)-4-methylpiperazine] displayed an EC50 at 3 days in data set [1] (setting [6]) of 18.2 µM.

Turning to `CN1CCN(CCNCc2cn(-c3ccccc3)nc2-c2ccc3c(c2)OCCO3)CC1` [Compound 27, N-((3-(2,3-dihydrobenzo[b][1,4]dioxin-6-yl)-1-phenyl-1H-pyrazol-4-yl)methyl)-2-(4-methylpiperazin-1-yl)ethan-1-amine trihydrochloride], the EC50 at 3 days in data set [1] (setting [6]) turned out to be 6.94 µM. As for `O=C(Nc1ccccc1)c1cn(-c2ccccc2)nc1-c1ccc2c(c1)OCCO2` [Compound 30, 3-(2,3-dihydrobenzo[b][1,4]dioxin-6-yl)-N,1-diphenyl-1H-pyrazole-4-carboxamide], a half-maximal response in data set [1] (setting [6]) (EC50 at 3 days) required 9.19 µM.

Regarding `O=C(NCCc1ccccc1)c1cn(-c2ccccc2)nc1-c1ccc2c(c1)OCCO2` [Compound 34, 3-(2,3-dihydrobenzo[b][1,4]dioxin-6-yl)-N-phenethyl-1-phenyl-1H-pyrazole-4-carboxamide], the EC50 was over 64 µM in data set [2], 4.74 µM in data set [3], over 64 µM in data set [4] and over 64 µM in data set [5]. The same compound yielded a half-maximal effective concentration (EC50) at 3 days in data set [1] (setting [6]) of 1.54 µM. As for `O=C(NCCN1CCCC1)c1cn(-c2ccccc2)nc1-c1ccc2c(c1)OCCO2` [Compound 42, 3-(2,3-dihydrobenzo[b][1,4]dioxin-6-yl)-1-phenyl-N-(2-(pyrrolidin-1-yl)ethyl)-1H-pyrazole-4-carboxamide oxalate], the 50% effective concentration (EC50) in data set [2] was 27.3 µM; in data set [3], 6.43 µM; in data set [4], 21.7 µM; in data set [5], 7.15 µM. This compound registered an EC50 at 3 days in data set [1] (setting [6]) of 28 µM.

In data set [1] (setting [6]), `CN1CCN(CCNC(=O)c2cn(-c3ccccc3)nc2-c2ccc3c(c2)OCCO3)CC1` [Compound 43, 3-(2,3-dihydrobenzo[b][1,4]dioxin-6-yl)-N-(2-(4-methylpiperazin-1-yl)ethyl)-1-phenyl-1H-pyrazole-4-carboxamide] returned a half-maximal effective concentration (EC50) at 3 days of 19 µM. As for `Fc1ccc(Cc2cn(-c3ccccc3)nc2-c2ccc3c(c2)OCCO3)cc1` [Compound 51, 3-(2,3-dihydrobenzo[b][1,4]dioxin-6-yl)-4-(4-fluorobenzyl)-1-phenyl-1H-pyrazole], the concentration giving a half-maximal response (EC50) at 3 days in data set [1] (setting [6]) was over 64 µM. Consider `Fc1ccc(CNCc2cn(-c3ccccc3)nc2-c2ccc3c(c2)OCO3)cc1` [Compound 55, 1-(3-(benzo[d] [1,3]dioxol-5-yl)-1-phenyl-1H-pyrazol-4-yl)-N-(4-fluorobenzyl)methanamine hydrochloride], for which, in data set [1] (setting [6]), the EC50 at 3 days is 1 µM. In turn, `Fc1ccc(CCNCc2cn(-c3ccccc3)nc2-c2ccc3c(c2)OCO3)cc1` [Compound 56, N-((3-(benzo[d] [1,3]dioxol-5-yl)-1-phenyl-1H-pyrazol-4-yl)methyl)-2-(4-fluorophenyl)ethan-1-amine hydrochloride] returned a concentration for a half-maximal effect (EC50) at 3 days in data set [1] of 6.65 µM. In turn, `c1ccc(-n2cc(CNCCc3ccncc3)c(-c3ccc4c(c3)OCO4)n2)cc1` [Compound 57, N-((3-(benzo[d] [1,3]dioxol-5-yl)-1-phenyl-1H-pyrazol-4-yl)methyl)-2-(pyridin-4-yl)ethan-1-amine hydrochloride] displayed an EC50 at 3 days in data set [1] (setting [6]) of 4 µM.

On to `c1ccc(-n2cc(CNCCc3cccnc3)c(-c3ccc4c(c3)OCO4)n2)cc1` [Compound 58, N-((3-(benzo[d] [1,3]dioxol-5-yl)-1-phenyl-1H-pyrazol-4-yl)methyl)-2-(pyridin-3-yl)ethan-1-amine hydrochloride], for which the concentration giving a half-maximal response (EC50) at 3 days in data set [1] (setting [6]) turned out to be 19.4 µM. Same read-out and setting: the value for `c1ccc(-n2cc(CNCCN3CCOCC3)c(-c3ccc4c(c3)OCO4)n2)cc1` [Compound 61, N-((3-(benzo[d] [1,3]dioxol-5-yl)-1-phenyl-1H-pyrazol-4-yl)methyl)-2-morpholinoethan-1-amine dihydrochloride] was 17.1 µM; that for `COc1ccc(-c2nn(-c3ccccc3)cc2CNCCc2ccncc2)cc1` [Compound 62, N-((3-(4-methoxyphenyl)-1-phenyl-1H-pyrazol-4-yl)methyl)-2-(pyridin-4-yl)ethan-1-amine hydrochloride] was 9.66 µM; that for `COc1ccc(-c2nn(-c3ccccc3)cc2CNCCc2cccnc2)cc1` [Compound 63, N-((3-(4-methoxyphenyl)-1-phenyl-1H-pyrazol-4-yl)methyl)-2-(pyridin-3-yl)ethan-1-amine hydrochloride] was 16.4 µM. The same measure, in the same setting: the value for `COc1ccc(-c2nn(-c3ccccc3)cc2CNCCc2ccc(F)cc2)cc1OC` [Compound 67, N-((3-(3,4-dimethoxyphenyl)-1-phenyl-1H-pyrazol-4-yl)methyl)-2-(4-fluorophenyl)ethan-1-amine hydrochloride] was 1.22 µM.
